Values joined by “and” are separate entries in the source; they are usually repeats but may differ in a detail not shown here. Equal values may be shown once. Read-outs that look alike come from different tables or passages of the source.
How the values were obtained:
gp120IIIB = gp120IIIB (Human immunodeficiency virus type 1 group M subtype B, UniProt P04578); details: dot blot, 2 μg peptide spotted, 5 μg gp120IIIB
Experimental: Dot blot analysis: CTTs or Helix-A and -B peptides (2 μg each) were spotted on a nitrocellulose membrane and allowed to dry. The membrane was then incubated in blocking buffer (5% BSA in TBST [[…] NaCl, 20 mM Tris-base, pH 7.5, 0.05% TWEEN® 20]) for 2 hours followed by incubation with a solution composed of 5 μg recombinant gp120 (for binding to CTTs) or 5 μg recombinant TUBB3 (for Helix-A and -B) in 20 mL of TBST for 2 hours. The membranes were washed and then incubated with a mouse anti-gp120 antibody (1:1000; Immunodiagnostics, Inc.) or mouse anti-TUBB3 antibody (1:5000; Covance, N.J.) in TBST for 2 hours. Membranes were washed and incubated in goat anti-mouse HP-conjugated secondary antibody (1:20,000; Jackson ImmunoResearch Laboratories, Inc., PA). Visualization of the bands was then accomplished by the addition of PIERCE® SUPERSIGNAL™ West Pico-Stable Peroxidase Solution and Luminol/Enhancer Solution (Pierce Biotechnology, Inc., Rockford, Ill.).
Several CTTs (see Table 1) synthesized by […]® were used. Peptides (2 μg each) were spotted on a nitrocellulose membrane and incubated with a solution composed of 5 μg of gp120IIIB (Immunodiagnostics) in 20 mL of TBS-TWEEN® 2 hours at RT, followed by incubation with a specific primary antibody (Immunodiagnostics, +4° C., ON). Following incubation with a corresponding HRP-conjugated secondary antibody 1 hour at RT, the immunocomplexes were visualized with chemiluminescence.

recombinant TUBB3 = biological target: T1, recombinant TUBB3 (Homo sapiens, UniProt Q13509); test: SPR (BIACORE T200) binding to immobilized TUBB3; details: for Kd: Ligand: TUBB3
T1 construct: purchased MyBioSource, San Diego, Calif
Experimental: Surface plasmon resonance (SPR). BIACORE® T200™ was used to determine the kinetic parameters for the binding of recombinant TUBB3, tubulin dimer, and assembled microtubules (ligands) to the various isoforms of gp120 or related peptides (analytes). Recombinant TUBB3, tubulin dimer, and assembled MTs were covalently attached to different flow cells of a carboxymethyldextran (CM5) sensor chip by amine coupling. The chip surface was activated for 720 sec at 10 μL/min with of 1:1 mixture of 0.1 M N-Hydroxysuccinimide (NHS) and 0.5 M 1-Ethyl-3-(-3-dimethylaminopropyl)-carbodiimide hydrochloride (EDC). […] After ligand capture, the surfaces were deactivated by injecting 1 M ethanolamine for 720 sec at 10 μL/min. HBS-P (10 mM HEPES, pH7.4, 150 mM NaCl, 0.05% P-20) with 2 mM MgCl2 used as the running buffer. Flow cell 1 on each chip was left empty and used for reference surface. […] Kinetic studies were performed by injecting different concentrations of the analytes in triplicate. The chip surface was regenerated by with 10 mM glycine pH 1.5 injected for 30 sec at a flow rate of 100 μL/min. Each sample was injected for 60 sec (contact time) followed by a dissociation time of 300 sec at a flow rate of 100 μL/min. Data was analyzed with BIACORE® T200™ Evaluation Software (version 1) to determine the equilibrium dissociation constant (KD) from a 1:1 binding model. Binding studies with peptides Helix A and Helix B were done in the same way as described above. Kinetic studies were performed by injecting different concentrations (20 μM, 10 μM, 5 μM, 2.5 μM, 1.25 μM and 0.625 μM) of Helix A and Helix B. Competition experiments with Helix A and Helix B were performed by mixing 100 nM gp120 isoforms with 10 μM of each peptide and injecting over the sensorchip surface.
Recombinant TUBB3, tubulin dimer, and assembled MTs from bovine brains were immobilized on a BIACORE® CM5 chip by amine coupling. Different concentrations of gp120s (from 3.13 to 100 nM) were injected over the surface in triplicates in each experiment. The kinetics of interaction was analyzed using a BIACORE® T200™ instrument. BiaEvaluation software was used to calculate binding affinities based on 1:1 binding model.

T1 sequence (Q13509 whole entry): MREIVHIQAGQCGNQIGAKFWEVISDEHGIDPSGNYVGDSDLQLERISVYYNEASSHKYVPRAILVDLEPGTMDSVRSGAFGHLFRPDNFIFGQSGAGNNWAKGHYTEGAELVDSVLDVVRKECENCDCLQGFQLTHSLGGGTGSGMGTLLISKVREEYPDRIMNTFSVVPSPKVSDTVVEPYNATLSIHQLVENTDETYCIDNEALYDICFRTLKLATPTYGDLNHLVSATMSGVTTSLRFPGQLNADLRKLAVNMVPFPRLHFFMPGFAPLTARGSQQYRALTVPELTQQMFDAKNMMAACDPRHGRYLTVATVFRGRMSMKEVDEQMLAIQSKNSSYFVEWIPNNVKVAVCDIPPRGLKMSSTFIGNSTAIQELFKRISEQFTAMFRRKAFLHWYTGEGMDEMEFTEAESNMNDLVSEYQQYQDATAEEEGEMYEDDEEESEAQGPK

EDDEEESEA [SEQ ID NO: 13]
Binding to gp120 (gp120IIIB; listed as tubulin β-3 (TUBB3)): potential binding partners

EGEGEEEGE [SEQ ID NO: 5]
Binding to gp120 (gp120IIIB): YES | Binding to gp120 (gp120IIIB; listed as tubulin-α1A/1B Δ2): potential binding partners

gp120MN: HIV envelope protein gp120, strain MN, purchased from Immunodiagnostics
SPR response (2-1) RU, Fc2: Tubulin β-3 1092 RU (recombinant TUBB3; 100 nM gp120 alone, 60 sec injection): 9 RU and 8.8 RU | Kd (recombinant TUBB3; mean of two independent experiments, read-out: Mean KD): 740 nM | Kd (recombinant TUBB3; single experiment, gp120 3.13 to 100 nM, 1:1 binding model, read-out: KD): 579 nM and 901 nM
